Laboratory results reported in US6525001B1, “Substituted pyrimidine and pyridine herbicides” (Mid-American Commercialization Corporation, priority 1997, dated 2003).

Assays:
Assay type in all cases: in vivo
[1] = tested on: bamyardgrass (Echinochloa crus-galli); test: Test B flood test
Outline: (§1)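 Read-out is a visual response score from 0 (no effect) to 10 (complete control), assigned by comparison with untreated controls. Treatment was applied at the 2-leaf stage, and plants stayed in the greenhouse for twelve to sixteen days before scoring.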

[2] = tested on: smallflower flatsedge (Cyperus difformis); test: Test B flood test
Outline: as §1

rice (Oryza sativa) = test: Test B flood test
Outline: as §1

[3] = tested on: duck salad (Heteranthera limosa); test: Test B flood test
Outline: as §1

corn (Zea mays) = test: Test B pre-/postemergence; set-up: key: 0 is no effect; 10 is complete control; conditions: for Corn plant response rating: Preemergence
Excerpt: (§2) Seeds of bedstraw (Galium aparine), blackgrass (Alopecurus myosuroides), broadleaf signalgrass (Brachiaria decumbens), cocklebur (Xanthium strumarium), corn (Zea mays), crabgrass (Digitaria sanguinalis), giant foxtail (Setaria faberii), lambsquarters (Chenopodium album), momingglory (Ipomoea hederacea), pigweed (Amaranthus retroflexus), rape (Brassica napus), soybean (Glycine max), sugar beet (Beta vulgaris), velvetleaf (Abutilon theophrasti), wheat (Triticum aestivum), wild oat (Avena fatua) and purple nutsedge (Cyperus rotundus) tubers were planted and treated preemergence with test chemicals formulated in a non-phytotoxic solvent mixture which included a surfactant.
(§3) At the same time, these crop and weed species were also treated with postemergence applications of test chemicals formulated in the same manner. Plants ranged in height from 2 to 18 cm (1- to 4-leaf stage) for postemergence treatments. Plant species in the flood test consisted of rice (Oryza sativa), smallflower flatsedge (Cyperus difformis), duck salad (Heteranthera limosa) and bamyardgrass (Echinochloa crus-galli) grown to the 2-leaf stage for testing. Treated plants and controls were maintained in a greenhouse for twelve to sixteen days, after which all species were compared to controls and visually evaluated. Plant response ratings, summarized in Table B, are based on a scale of 0 to 10 where 0 is no effect and 10 is complete control. A dash (−) response means no test result.

[4] = tested on: sugar beet (Beta vulgaris); test: Test B pre-/postemergence; set-up: key: 0 is no effect; 10 is complete control
Excerpt: as §2, §3

[5] = tested on: pigweed (Amaranthus retroflexus); test: Test B pre-/postemergence; set-up: key: 0 is no effect; 10 is complete control
Excerpt: as §2, §3

[6] = tested on: cocklebur (Xanthium strumarium); test: Test B pre-/postemergence; set-up: key: 0 is no effect; 10 is complete control; conditions: for Cocklebur plant response rating: Preemergence
Excerpt: as §2, §3

soybean (Glycine max) = test: Test B pre-/postemergence; set-up: key: 0 is no effect; 10 is complete control
Excerpt: as §2, §3

[7] = tested on: momingglory (Ipomoea hederacea); test: Test B pre-/postemergence; set-up: key: 0 is no effect; 10 is complete control
Excerpt: as §2, §3

[8] = tested on: wheat (Triticum aestivum); test: Test B pre-/postemergence; set-up: key: 0 is no effect; 10 is complete control
Excerpt: as §2, §3

[9] = tested on: giant foxtail (Setaria faberii); test: Test B pre-/postemergence; set-up: key: 0 is no effect; 10 is complete control
Excerpt: as §2, §3

rape (Brassica napus) = test: Test B pre-/postemergence; set-up: key: 0 is no effect; 10 is complete control
Excerpt: as §2, §3

wild oat (Avena fatua) = test: Test B pre-/postemergence; set-up: key: 0 is no effect; 10 is complete control
Excerpt: as §2, §3

[10] = tested on: bedstraw (Galium aparine); test: Test B pre-/postemergence; set-up: key: 0 is no effect; 10 is complete control; conditions: Postemergence
Excerpt: as §2, §3

[11] = tested on: purple nutsedge (Cyperus rotundus); test: Test B pre-/postemergence; set-up: key: 0 is no effect; 10 is complete control
Excerpt: as §2, §3

[12] = tested on: velvetleaf (Abutilon theophrasti); test: Test B pre-/postemergence; set-up: key: 0 is no effect; 10 is complete control
Excerpt: as §2, §3

[13] = tested on: blackgrass (Alopecurus myosuroides); test: Test B pre-/postemergence; set-up: key: 0 is no effect; 10 is complete control; conditions: for Blackgrass plant response rating: Preemergence
Excerpt: as §2, §3

[14] = tested on: broadleaf signalgrass (Brachiaria decumbens); test: Test B pre-/postemergence; set-up: key: 0 is no effect; 10 is complete control; conditions: for B. signalgrass plant response rating: Preemergence
Excerpt: as §2, §3

[15] = tested on: crabgrass (Digitaria sanguinalis); test: Test B pre-/postemergence; set-up: key: 0 is no effect; 10 is complete control; conditions: for Crabgrass plant response rating: Preemergence
Excerpt: as §2, §3

[16] = Rate 62 g/ha, Postemergence (flood test)
[17] = Rate 125 g/ha, Postemergence, flood test
[18] = Rate 250 g/ha, Postemergence (flood test species)
[19] = Rate 125 g/ha, Postemergence section (flood test species)
[20] = Rate 250 g/ha, Postemergence (so in the source)

With `Cc1cnc(-c2ccc(F)c(Cl)c2)nc1Cc1cccc(C#N)c1` [Compound 40] the “Plant response rating, Barnyardgrass” value [1, 16] was 2, the “Plant response rating, Barnyardgrass” value [1, 17] was 2 and the “Plant response rating, Barnyardgrass” value [1, 18] was 2. For the same compound, the “Plant response rating, S. Flatsedge” value [2, 16] was 2, the “S. Flatsedge plant response rating” value [2, 19] was 4 and the “Plant response rating, S. Flatsedge” value [2, 18] was 5. For the same compound, the “Plant response rating, Rice” value (rice (Oryza sativa); [16]) was 1, the “Rice plant response rating” value (rice (Oryza sativa); [19]) was 1 and the “Plant response rating, Rice” value (rice (Oryza sativa); [18]) was 2. The “Plant response rating, Ducksalad” value [3, 16] was 1, the “Plant response rating, Ducksalad” value [3, 17] was 5 and the “Plant response rating, Ducksalad” value [3, 18] was 7. For the same compound, the “Plant response rating, Corn” value (corn (Zea mays); Rate 62 g/ha, Postemergence) was 1, the “Corn plant response rating” value (corn (Zea mays); Rate 62 g/ha) was 0 and the “Plant response rating, Corn” value (corn (Zea mays); Rate 125 g/ha, Postemergence) was 1. For the same compound, the “Corn plant response rating” value (corn (Zea mays); Rate 125 g/ha) was 0, the “Plant response rating, Corn” value (corn (Zea mays); Rate 250 g/ha, Postemergence) was 1 and the “Plant response rating, Corn” value (corn (Zea mays); [20]) was 0. The “Plant response rating, Sugarbeets” value ([4]; Rate 62 g/ha, Postemergence) was 10, the “Sugarbeets plant response rating” value ([4]; Rate 62 g/ha, Preemergence) was 2 and the “Sugarbeets plant response rating” value ([4]; Rate 125 g/ha, Postemergence) was 10. The “Plant response rating, Sugarbeets” value ([4]; Rate 125 g/ha, Preemergence) was 6, the “Plant response rating, Sugarbeets” value ([4]; Rate 250 g/ha, Postemergence) was 10 and the “Plant response rating, Sugarbeets” value [4, 20] was 6. The “Plant response rating, Redroot pigweed” value ([5]; Rate 62 g/ha, Postemergence) was 2, the “Redroot pigweed plant response rating” value ([5]; Rate 62 g/ha, Preemergence) was 0 and the “Redroot pigweed plant response rating” value ([5]; Rate 125 g/ha, Postemergence) was 3. The “Redroot pigweed plant response rating” value ([5]; Rate 125 g/ha, Preemergence) was 1, the “Plant response rating, Redroot pigweed” value ([5]; Rate 250 g/ha, Postemergence) was 6 and the “Plant response rating, Redroot pigweed” value [5, 20] was 2. The “Plant response rating, Cocklebur” value ([6]; Rate 62 g/ha, Postemergence) was 5, the “Cocklebur plant response rating” value ([6]; Rate 62 g/ha) was 0 and the “Plant response rating, Cocklebur” value ([6]; Rate 125 g/ha, Postemergence) was 2. For the same compound, the “Cocklebur plant response rating” value ([6]; Rate 125 g/ha) was 0, the “Plant response rating, Cocklebur” value ([6]; Rate 250 g/ha, Postemergence) was 5 and the “Plant response rating, Cocklebur” value [6, 20] was 0. For the same compound, the “Plant response rating, Soybean” value (soybean (Glycine max); Rate 62 g/ha, Postemergence) was 2, the “Soybean plant response rating” value (soybean (Glycine max); Rate 62 g/ha, Preemergence) was 0 and the “Soybean plant response rating” value (soybean (Glycine max); Rate 125 g/ha, Postemergence) was 2. For the same compound, the “Plant response rating, Soybean” value (soybean (Glycine max); Rate 125 g/ha, Preemergence) was 0, the “Plant response rating, Soybean” value (soybean (Glycine max); Rate 250 g/ha, Postemergence) was 2 and the “Plant response rating, Soybean” value (soybean (Glycine max); [20]) was 0. The “Plant response rating, Morningglory” value ([7]; Rate 62 g/ha, Postemergence) was 2, the “Morningglory plant response rating” value ([7]; Rate 62 g/ha, Preemergence) was 0 and the “Morningglory plant response rating” value ([7]; Rate 125 g/ha, Postemergence) was 2. The “Morningglory plant response rating” value ([7]; Rate 125 g/ha, Preemergence) was 1, the “Plant response rating, Morningglory” value ([7]; Rate 250 g/ha, Postemergence) was 5 and the “Plant response rating, Morningglory” value [7, 20] was 2. For the same compound, the “Wheat plant response rating” value ([8]; Rate 62 g/ha, Postemergence) was 1, the “Wheat plant response rating” value ([8]; Rate 62 g/ha, Preemergence) was 0 and the “Wheat plant response rating” value ([8]; Rate 125 g/ha, Postemergence) was 1. For the same compound, the “Plant response rating, Wheat” value ([8]; Rate 125 g/ha, Preemergence) was 0, the “Plant response rating, Wheat” value ([8]; Rate 250 g/ha, Postemergence) was 2 and the “Plant response rating, Wheat” value [8, 20] was 0. For the same compound, the “Plant response rating, Giant foxtail” value ([9]; Rate 62 g/ha, Postemergence) was 0, the “Giant foxtail plant response rating” value ([9]; Rate 62 g/ha, Preemergence) was 0 and the “Giant foxtail plant response rating” value ([9]; Rate 125 g/ha, Postemergence) was 0. For the same compound, the “Giant foxtail plant response rating” value ([9]; Rate 125 g/ha, Preemergence) was 1, the “Plant response rating, Giant foxtail” value ([9]; Rate 250 g/ha, Postemergence) was 2 and the “Plant response rating, Giant foxtail” value [9, 20] was 3. For the same compound, the “Plant response rating, Rape” value (rape (Brassica napus); Rate 62 g/ha, Postemergence) was 6, the “Rape plant response rating” value (rape (Brassica napus); Rate 62 g/ha, Preemergence) was 0 and the “Rape plant response rating” value (rape (Brassica napus); Rate 125 g/ha, Postemergence) was 6. For the same compound, the “Rape plant response rating” value (rape (Brassica napus); Rate 125 g/ha, Preemergence) was 1, the “Plant response rating, Rape” value (rape (Brassica napus); Rate 250 g/ha, Postemergence) was 8 and the “Plant response rating, Rape” value (rape (Brassica napus); [20]) was 2. The “Wild oats plant response rating” value (wild oat (Avena fatua); Rate 62 g/ha, Postemergence) was 0, the “Wild oats plant response rating” value (wild oat (Avena fatua); Rate 62 g/ha, Preemergence) was 0 and the “Wild oats plant response rating” value (wild oat (Avena fatua); Rate 125 g/ha, Postemergence) was 0. For the same compound, the “Plant response rating, Wild oats” value (wild oat (Avena fatua); Rate 125 g/ha, Preemergence) was 0, the “Plant response rating, Wild oats” value (wild oat (Avena fatua); Rate 250 g/ha, Postemergence) was 1 and the “Plant response rating, Wild oats” value (wild oat (Avena fatua); [20]) was 1. For the same compound, the “Plant response rating, Bedstraw” value ([10]; Rate 62 g/ha) was 4, the “Plant response rating, Bedstraw” value ([10]; Rate 125 g/ha) was 4 and the “Plant response rating, Bedstraw” value ([10]; Rate 250 g/ha) was 6. The “Nutsedge plant response rating” value ([11]; Rate 62 g/ha, Preemergence) was 0, the “Plant response rating, Nutsedge” value [11, 20] was 0 and the “Plant response rating, Velvetleaf” value ([12]; Rate 62 g/ha, Postemergence) was 1. For the same compound, the “Velvetleaf plant response rating” value ([12]; Rate 62 g/ha, Preemergence) was 0, the “Velvetleaf plant response rating” value ([12]; Rate 125 g/ha, Postemergence) was 2 and the “Plant response rating, Velvetleaf” value ([12]; Rate 125 g/ha, Preemergence) was 0. The “Plant response rating, Velvetleaf” value ([12]; Rate 250 g/ha, Postemergence) was 2, the “Plant response rating, Velvetleaf” value [12, 20] was 1 and the “Plant response rating, Blackgrass” value ([13]; Rate 62 g/ha, Postemergence) was 2. For the same compound, the “Blackgrass plant response rating” value ([13]; Rate 62 g/ha) was 0, the “Plant response rating, Blackgrass” value ([13]; Rate 125 g/ha, Postemergence) was 2 and the “Blackgrass plant response rating” value ([13]; Rate 125 g/ha) was 1. The “Plant response rating, Blackgrass” value ([13]; Rate 250 g/ha, Postemergence) was 2, the “Plant response rating, Blackgrass” value [13, 20] was 2 and the “Plant response rating, B. signalgrass” value ([14]; Rate 62 g/ha, Postemergence) was 1. The “B. signalgrass plant response rating” value ([14]; Rate 62 g/ha) was 0, the “Plant response rating, B. signalgrass” value ([14]; Rate 125 g/ha, Postemergence) was 1 and the “B. signalgrass plant response rating” value ([14]; Rate 125 g/ha) was 0. For the same compound, the “Plant response rating, B. signalgrass” value ([14]; Rate 250 g/ha, Postemergence) was 1, the “Plant response rating, B. signalgrass” value ([14]; Rate 250 g/ha, Postemergence as printed in head r139 (second section for compounds 26-50)) was 1 and the “Plant response rating, Crabgrass” value ([15]; Rate 62 g/ha, Postemergence) was 1. The “Crabgrass plant response rating” value ([15]; Rate 62 g/ha) was 0, the “Plant response rating, Crabgrass” value ([15]; Rate 125 g/ha, Postemergence) was 1 and the “Crabgrass plant response rating” value ([15]; Rate 125 g/ha) was 0. For the same compound, the “Plant response rating, Crabgrass” value ([15]; Rate 250 g/ha, Postemergence) was 3 and the “Plant response rating, Crabgrass” value [15, 20] was 0.
